Results taken from ChEMBL document CHEMBL1201862, “PubChem BioAssay data set” (2004).
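Five concentrations, 48 hours, 96-well plates. GI50 = concentration required for 50% inhibition of growth.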 Activity calls are given as the source filed them. No stated cut-off is given here; in the data, active = GI50 up to about 1.1 µM and inactive = higher.

Legend:
Assay in all cases: NCI-60 cell line screen, 48 h
[1] = system: NCI-H23
[2] = system: OVCAR-3
[3] = system: M14
[4] = system: LOX IMVI
[5] = system: A498
[6] = system: MDA-MB-231
[7] = system: PC-3
[8] = system: HL-60
[9] = system: KM12
[10] = system: DU-145
[11] = system: 786-0
[12] = system: MOLT-4
[13] = system: K562
[14] = system: IGROV-1
[15] = system: NCI-H226
[16] = system: HOP-92
[17] = system: BT-549
[18] = system: UO-31
[19] = system: SW-620
[20] = system: Malme-3M

| Structure (SMILES) | GI50 [1] | GI50 [2] | GI50 [3] | GI50 [4] | GI50 [5] | GI50 [6] | GI50 [7] | GI50 [8] | GI50 [9] | GI50 [10] | GI50 [11] | GI50 [12] | GI50 [13] | GI50 [14] | GI50 [15] | GI50 [16] | GI50 [17] | GI50 [18] | GI50 [19] | GI50 [20] |
| --- | --- | --- | --- | --- | --- | --- | --- | --- | --- | --- | --- | --- | --- | --- | --- | --- | --- | --- | --- | --- |
| COc1c(-c2ccc3c(c2)OCO3)oc2cc3c(c(OC)c2c1=O)OCO3 [MELITERNATIN] | 22.8 µM (inactive) | 22.4 µM (inactive) | 26.2 µM (inactive) | 11.6 µM (inactive) | 23.5 µM (inactive) | 43 µM (inactive) | 21.1 µM (inactive) | 1.09 µM (active) | 25.5 µM (inactive) | 30.5 µM (inactive) | 48.2 µM (inactive) | > 100 µM (inactive) | 23.8 µM (inactive) | 18.7 µM (inactive) | 18.7 µM (inactive) | 15.3 µM (inactive) | 12.8 µM (inactive) | 23 µM (inactive) | 25.1 µM (inactive) | 24.8 µM (inactive) |
| CCC(=O)NC(NNS(=O)(=O)c1ccc(C)cc1)(C(F)(F)F)C(F)(F)F | 48.9 µM (inactive) | > 10 µM (inactive) | 37.6 µM (inactive) | > 100 µM (inactive) | > 100 µM (inactive) | 30.8 µM (inactive) | 55.1 µM (inactive) | 46.6 µM (inactive) | 54.1 µM (inactive) | > 100 µM (inactive) | > 100 µM (inactive) | 80 µM (inactive) | 30.6 µM (inactive) | 49.4 µM (inactive) | > 100 µM (inactive) | 37.6 µM (inactive) | 29.7 µM (inactive) | 34.2 µM (inactive) | 33.7 µM (inactive) | 59.4 µM (inactive) |
| CN(C)C(C1=C(O)C(c2ccccc2)N(c2ccccc2)C1=O)N1CCOCC1 (stereo not given) | > 10 µM (inactive) | > 10 µM (inactive) | > 10 µM (inactive) | > 10 µM (inactive) | > 10 µM (inactive) | > 10 µM (inactive) | > 10 µM (inactive) | > 10 µM (inactive) | > 10 µM (inactive) | > 10 µM (inactive) | > 10 µM (inactive) | > 10 µM (inactive) | > 10 µM (inactive) | > 10 µM (inactive) | > 10 µM (inactive) | > 10 µM (inactive) | > 10 µM (inactive) | > 10 µM (inactive) | > 10 µM (inactive) | > 10 µM (inactive) |
| N=c1oc2ccc(Cl)cc2cc1C(=O)NCc1ccccc1 | > 100 µM (inactive) | > 100 µM (inactive) | > 100 µM (inactive) | > 100 µM (inactive) | 63.5 µM (inactive) | > 100 µM (inactive) | 98.9 µM (inactive) | 11 µM (inactive) | 43.4 µM (inactive) | > 100 µM (inactive) | > 100 µM (inactive) | 31.2 µM (inactive) | > 42 µM (inactive) | > 100 µM (inactive) | > 100 µM (inactive) | 28.9 µM (inactive) | 23.7 µM (inactive) | > 61.7 µM (inactive) | > 100 µM (inactive) | 18.4 µM (inactive) |
| CN(C)CCOc1ccc2c(c1)C/C(=C/c1ncc([N+](=O)[O-])n1C)C2=O | 1 µM (active) | 2.11 µM (inactive) | 2.29 µM (inactive) | 2.65 µM (inactive) | 2.23 µM (inactive) | 1.91 µM (inactive) | 3.4 µM (inactive) | 3.25 µM (inactive) | 2.61 µM (inactive) | 3.13 µM (inactive) | 1.82 µM (inactive) | 1.21 µM (inactive) | 1.49 µM (inactive) | 0.233 µM (active) | 1.46 µM (inactive) | 1.83 µM (inactive) | 1.04 µM (active) | 1.68 µM (inactive) | 1.6 µM (inactive) | 1.94 µM (inactive) |
| Cc1cc2oc(C)c(S(=O)(=O)NC(=O)Nc3ccc(Cl)cc3)c(=O)c2c(=O)o1 | > 100 µM (inactive) | > 100 µM (inactive) | > 100 µM (inactive) | > 100 µM (inactive) | > 100 µM (inactive) | > 100 µM (inactive) | 83.6 µM (inactive) | > 100 µM (inactive) | > 100 µM (inactive) | > 100 µM (inactive) | > 100 µM (inactive) | > 100 µM (inactive) | > 100 µM (inactive) | > 100 µM (inactive) | > 100 µM (inactive) | > 100 µM (inactive) | > 100 µM (inactive) | > 100 µM (inactive) | > 100 µM (inactive) | > 100 µM (inactive) |
| CCOC(=O)/C(C(C)=O)=C(\OC(C)=O)c1ccncc1C(=O)O | > 100 µM (inactive) | > 100 µM (inactive) | > 100 µM (inactive) | > 100 µM (inactive) | > 100 µM (inactive) | > 100 µM (inactive) | > 100 µM (inactive) | > 100 µM (inactive) | > 100 µM (inactive) | > 100 µM (inactive) | > 100 µM (inactive) | > 100 µM (inactive) | > 100 µM (inactive) | > 100 µM (inactive) | > 100 µM (inactive) | > 100 µM (inactive) | > 100 µM (inactive) | > 100 µM (inactive) | > 100 µM (inactive) | > 100 µM (inactive) |
| O=C1CCCC[C@H]1C(O)CC1CC(=O)N(c2ccccc2)C(=O)C1 (stereo not given in full) | > 100 µM (inactive) | > 100 µM (inactive) | > 100 µM (inactive) | > 100 µM (inactive) | > 100 µM (inactive) | > 100 µM (inactive) | > 100 µM (inactive) | > 100 µM (inactive) | > 100 µM (inactive) | > 100 µM (inactive) | > 100 µM (inactive) | > 100 µM (inactive) | > 100 µM (inactive) | > 100 µM (inactive) | > 100 µM (inactive) | > 100 µM (inactive) | > 100 µM (inactive) | > 100 µM (inactive) | > 100 µM (inactive) | > 100 µM (inactive) |
| N#CCCCCC12C3C(=O)N(c4ccccc4)C(=O)C3ON1O[C@@H]1C(=O)N(c3ccccc3)C(=O)[C@@H]12 (stereo not given in full) | > 100 µM (inactive) | > 100 µM (inactive) | > 100 µM (inactive) | > 100 µM (inactive) | > 100 µM (inactive) | > 100 µM (inactive) | > 100 µM (inactive) | > 100 µM (inactive) | > 100 µM (inactive) | > 100 µM (inactive) | > 100 µM (inactive) | > 100 µM (inactive) | > 100 µM (inactive) | > 100 µM (inactive) | > 100 µM (inactive) | > 100 µM (inactive) | > 100 µM (inactive) | > 100 µM (inactive) | > 100 µM (inactive) | > 100 µM (inactive) |
| O=P1(N(CCCl)CCCl)NCCCO1 (stereo not given) [CYCLOPHOSPHAMIDE ANHYDROUS] | > 235 µM (inactive) | > 243 µM (inactive) | > 250 µM (inactive) | 248 µM (inactive) | > 238 µM (inactive) | > 250 µM (inactive) | > 250 µM (inactive) | 183 µM (inactive) | > 238 µM (inactive) | > 250 µM (inactive) | > 250 µM (inactive) | 249 µM (inactive) | 213 µM (inactive) | > 216 µM (inactive) | 249 µM (inactive) | > 246 µM (inactive) | > 250 µM (inactive) | > 250 µM (inactive) | > 250 µM (inactive) | > 250 µM (inactive) |
